From patent US5216003A, “Diacid-containing benzimidazole compounds for treatment of neurotoxic injury” (G. D. Searle & Co., priority 1992, dated 1993)

How the values were obtained:
[1] = tested on: NMDA receptor (rat brain hippocampal tissue); settings: evaluation of CPP binding to rat brain hippocampal tissue; Murphy et al 1987; cited from earlier work
[2] = tested on: pyramidal cells in CA1 of the hippocampus; assay: Forebrain Ischemia Assay (bilateral carotid occlusion, neuron count); type: in vivo, Mongolian gerbil; settings: for # of Neurons/Field: 7 days
Procedure: This assay was used to determine the extent of protection afforded by compound of the invention to neural brain cells subjected to ischemic conditions. Male Mongolian gerbils, 50-70 gm, were used as subjects. Compound Example #1 was injected i.p. 30 minutes prior to carotid occlusion into 6 gerbils […]. In preparation for surgical procedures, the animals were lightly anesthetized with methoxyflurane and placed upside down on a heated pad with their snout within a nosecone. A 70:30 mixture of nitrous oxide and oxygen containing 0.5% halothane was circulated through the nosecone to provide continuous anesthesia throughout the surgical procedure. A midline incision was made in the neck and the carotid arteries were exposed. A length of suture thread was placed under each carotid. The thread was then tightened around each carotid and pressure applied to the thread to insure flow was occluded. Flow was occluded for 4-5 minutes and then the thread was removed. The carotids were visually inspected to confirm that reflow had occurred. The wound was then closed with autoclips and the gerbils allowed to recover. Following surgery, the gerbils were kept alive for 7 days. They were anesthetized with 100 mg/kg sodium pentobarbital and perfused transcardially with saline (with heparin) followed by buffered formalin. The brain was removed, trimmed and prepared for histological processing. Sections (10 microns) were stained with thionin. At 7 days following this type of transient global forebrain ischemia, damaged neurons in the vulnerable CAl region of the hippocampus have degenerated and been cleared away by glia. Quantification of the resulting lesion is made by counting the pyramidal cell somata in a 0.5 mm length of CAl of the hippocampus on the section corresponding to P 1.7 mm in the gerbil brain atlas. […] The effects of compound of Ex. #1 were assessed by comparing the number of neural cells found in the hippocampus of subjects treated with Ex. #1 compound with the cell number found in the appropriate control groups. […]

[3] = tested on: motor function; assay: inverted screen test for motor impairment; type: in vivo, male CD-1 mice; settings: for Exhibiting Motor Impairments (% of Mice): 56 mg/kg s.c., n = 10, vehicle 10 (n = 20)
Procedure: This assay was used to determine the extent of in vivo protection against convulsions afforded by compound of the invention to mice subjected to artifically-induced convulsive conditions. Naive male CD-l mice (20-30 grams body weight) from Charles River Laboratories, Portage Mich. served as subjects. The mice had ad libitum access to food and water prior to testing and were maintained on a 12 hour light/12 hour dark schedule with testing during the light portion of the cycle. The mice were tested for motor impairment by use of the inverted screen test approximately 5 minutes prior to anticonvulsant testing. The inverted screen apparatus was similar to that described by Coughenour et al [Pharmacol. Biochem. Behav., 6, 351-353 (1977)]. Mice were placed on 13×13 cm pieces of #4 wire mesh screen which were mounted horizontally. The screens were then slowly inverted. […] Tonic hindlimb extensor seizures were then produced by application of electroconvulsive shock through concave electrodes to the eyeballs. Both the eyeballs and the electrodes were moistened with 0.9% saline to improve conductivity. The ECS stimulus was generated by use of a Grass model S48D stimulator with a Grass model CCUlA constant current unit in series with the output. Stimulation consisted of 10 msec pulses of a 60 pps single phase square wave for a duration of 200 msec. The current was held constant at 15 mA. Compound of Example #1 was suspended in a vehicle of 0.9% saline with a few drops of PG-Tween added. PG-Tween is a 1:1 mixture of propylene glycol and Tween 80. The Example #1 compound or vehicle was administered s.c. in a volume of 10 ml/kg body weight 30 minutes prior to application of the ECS stimulus. […] There were 10 mice in each treatment group.

[4] = tested on: tonic hindlimb extensor seizures; assay: Anticonvulsant Assay (electroconvulsive shock); type: in vivo, male CD-1 mice; settings: 30 min prior to ECS; for Protected from ECS (% of Mice): 56 mg/kg s.c., n = 10, vehicle 5 (n = 20)
[5] = target: Kainate (KA) receptor; assay: [3H]kainate (KA) binding assay on synaptic plasma membranes; set-up: species or system rat; settings: 0.5 nM [3H]kainate, pH 7.4, 0-4 °C, 60 min
Procedure: (§1) Synaptic plasma membranes (SPM) were prepared as previously described [Monahan, J. B. and Michel, J., "Identification and Characterization of an N-methyl-D-aspartate-specific L[^3 H]glutamate Recognition Site in Synaptic Plasma Membranes", J. Neurochem., 48, 1699-1708 (1987)]. The SPM were stored at a concentration of 10-15 mg/ml in 0.32M sucrose, 0.5 mM EDTA, 1 mM MgSO4, 5 mM Tris/SO4, pH 7.4, under liquid nitrogen. The identity and purity of the subcellular fractions were confirmed by both electron microscopy and marker enzymes. Protein concentrations were determined by using a modification of the method of Lowry [Ohnishi, S. T. and Barr, J. K., "A Simplified Method of Quantitating Proteins Using the Biuret and Phenol Reagents", Anal. Biochem., 86, 193-197 (1978)]. The SPM were treated identically for the [^3 H]AMPA (QUIS), [^3 H]kainate and sodium-dependent L-[^3 H]-glumatate binding assays. […] Beckman MP scintillation cocktail containing 7 mL/l acetic acid was then added and the samples counted on a Beckman LS 5800 or 3801 liquid scintillation counter with automatic corrections for quenching and counting efficiency. […] Radioligand binding to the synaptic plasma membranes was analyzed using Scatchard and Hill transformations and the Ki values of the compounds determined using logit-log transformations. […]

[6] = target: [3H]MK-801 binding in rat SPM; assay: [3H]MK-801 Binding assay; settings: 5.0 nM [3H]MK-801, 10.0 nM L-glutamate, pH 7.4, 25 °C, 30 min
Procedure: Modulation of [^3 H]MK-801 binding was performed using Triton X-100 (0.04% v/v) treated rat SPM that had been extensively washed. Assay incubations were at 25° C. for 30 min. and contained 5.0 nM [^3 H]MK-801, L-glutamate (10.0 nM), and various concentrations of the tested compound in 50 mM Tris/acetate, pH 7.4. The assay was stopped by rapid filtration, using Brandel MB-48 Harvester, through Whatman GF/B filters treated with 0.05% polyethylenimine and the samples washed four times with 2.0 mL cold buffer. The radioactivity associated with the filter was determined by liquid scintillation spectrometry. Nonspecific binding was defined using 60 μM MK-801. IC50 were determined using a logit-log transformation of the binding data.

[7] = target: NMDA receptor (N-methyl-D-aspartate-specific L-[3H]glutamate recognition site in synaptic plasma membranes); assay: NMDA-Selective Glutamate Binding Assay, L-[3H]glutamate; set-up: species or system rat; settings: 12.5 nM L-[3H]glutamate, pH 7.4, 0-4 °C, 10 min; read-out: [3H]GLU Ki
Procedure: as §1

Structure (SMILES)	NMDA antagonism [1]	# of Neurons/Field ([2]; 300 mg/kg i.p. 30 min prior to carotid occlusion, control 19.8, p < 0.01)	# of Neurons/Field ([2]; 500 mg/kg i.p. 30 min prior to carotid occlusion, control 39.8, p < 0.005)	cell loss ([2]; i.p., 300 and 500 mg/kg, vs control, Mann-Whitney U test)	Exhibiting Motor Impairments (% of Mice) ([3]; Test A)	Exhibiting Motor Impairments (% of Mice) ([3]; Test B)	motor function ([3]; s.c., similar dose range as anticonvulsant effect)	Protected from ECS (% of Mice) ([4]; Test A)	Protected from ECS (% of Mice) ([4]; Test B)	protection against tonic hindlimb extensor seizures ([4]; s.c.)	KA Ki [5]	Ki [6]	Ki [7]
O=C(O)C1CN(CCCP(=O)(O)O)CCN1 (stereo not shown) [CPP, 3-(2-carboxypiperazin-4-yl)propyl-1-phosphonic acid]	potent and selective NMDA antagonist	–	–	–	–	–	–	–	–	–	–	–	–
O=C(O)c1nc2cccc(CP(=O)(O)O)c2[nH]1 [Example 1, 2-carboxy-4-phosphonomethylbenzimidazole]	–	44.3 # of Neurons/Field	137.4 # of Neurons/Field	significantly reduced	10 % of Mice	0 % of Mice	impaired motor function in a similar dose range	50 % of Mice	20 % of Mice	protected against tonic hindlimb extensor seizures in a dose-dependent fashion	> 100 µM	3.9 µM	1.6 µM
